According to patent publication US7342024B2, “4-Oxo-1-3-substituted phenyl-1,4-dihydro-1,8-naphthyridine-3-carboxamide phosphodiesterase-4 inhibitors” (Merck Frost Canada Ltd., priority 2002, dated 2008):

The compounds below were run against T1, human recombinant phosphodiesterase IVb (met-248) (Homo sapiens, UniProt Q07343) (assay: SPA based PDE activity assay). Settings: 100 nM cAMP, purified GST fusion protein of PDE IVb (met-248) from baculovirus/Sf-9.
T1 construct: fused on or other part: GST (glutathione transferase) fused on as a tag
Format: biochemical
Procedure: Compounds which inhibit the hydrolysis of cAMP to AMP by the type-IV cAMP-specific phosphodiesterases were screened in a 96-well plate format as follows:
In a 96 well-plate at 30° C. was added the test compound (dissolved in 2 μL DMSO), […] of substrate buffer containing [2,8-^3H] adenosine 3′,5′-cyclic phosphate (cAMP, 110 nM to 50 μM), 10 mM MgCl2, 1 mM EDTA, 50 mM Tris, pH 7.5. The reaction was initiated by the addition of […] of human recombinant PDE4 (the amount was controlled so that ˜10% product was formed in 10 min.). The reaction was stopped after 10 min. by the addition of 1 mg of PDE-SPA beads (Amersham Pharmacia Biotech, Inc., Piscataway, N.J.). The product AMP generated was quantified on a Wallac Microbeta® 96-well plate counter (EG&G Wallac Co., Gaithersburg, Md.). The signal in the absence of enzyme was defined as the background. 100% activity was defined as the signal detected in the presence of enzyme and DMSO with the background subtracted. Percentage of inhibition was calculated accordingly. IC50 value was approximated with a non-linear regression fit using the standard 4-parameter/multiple binding sites equation from a ten point titration.
The IC50 values of the Examples disclosed here under were determined with 100 nM cAMP using the purified GST fusion protein of the human recombinant phosphodiesterase IVb (met-248) produced from a baculovirus/Sf-9 expression system.

T1 sequence (Q07343 236-736): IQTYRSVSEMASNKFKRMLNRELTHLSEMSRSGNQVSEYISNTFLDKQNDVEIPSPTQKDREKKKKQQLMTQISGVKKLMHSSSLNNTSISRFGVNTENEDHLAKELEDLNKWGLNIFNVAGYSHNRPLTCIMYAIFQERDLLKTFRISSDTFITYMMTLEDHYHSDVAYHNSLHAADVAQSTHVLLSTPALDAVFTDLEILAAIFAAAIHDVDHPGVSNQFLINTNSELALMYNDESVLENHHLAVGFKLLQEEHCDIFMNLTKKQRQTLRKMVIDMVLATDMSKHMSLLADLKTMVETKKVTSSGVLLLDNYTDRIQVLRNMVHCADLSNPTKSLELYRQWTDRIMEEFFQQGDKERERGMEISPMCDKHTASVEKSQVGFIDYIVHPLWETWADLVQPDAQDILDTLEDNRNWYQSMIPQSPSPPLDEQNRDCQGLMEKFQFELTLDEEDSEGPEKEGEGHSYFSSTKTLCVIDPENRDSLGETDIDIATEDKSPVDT

Q: Which IC50 does the source give for `O=C(NCC(F)(F)F)c1cn(-c2cccc(-c3ccc([C@@H]4C[C@H]4C(=O)O)cc3)c2)c2ncccc2c1=O` (single isomer, unassigned; (+)) [24-(+)-isomer, (+)-(trans)-2-{3′-[4-oxo-3-{[(2,2,2-trifluoroethyl)amino]carbonyl}-1,8-naphthyridin-1(4H)-yl]biphenyl-4-yl}cyclopropanecarboxylic acid] here?
A: 0.4 nM

Q: For `O=C(NCC(F)(F)F)c1cn(-c2cccc(-c3ccc(C4CC4C(=O)O)c(F)c3)c2)c2ncccc2c1=O` (single isomer, unassigned; (+)) [Example 29, (+)-(trans)-2-{3-fluoro-3′-[4-oxo-3-{[(2,2,2-trifluoroethyl)amino]carbonyl}-1,8-naphthyridin-1(4H)-yl]biphenyl-4-yl}cyclopropanecarboxylic acid], which IC50 is on record?
A: 0.3 nM

Q: How did the IC50 turn out when `O=C(NC1CC1)c1cn(-c2cccc(-c3ccc([C@H]4C[C@H]4C(=O)O)cc3)c2)c2ncccc2c1=O` (single isomer, unassigned; isomer 2) [8-(−)-isomer, 2-(cis)-{3′-[3-[(Cyclopropylamino)carbonyl]-4-oxo-1,8-naphthyridin-1(4H)-yl]-1,1′-biphenyl-4-yl}cyclopropanecarboxylic acid] was run?
A: 0.7 nM

Q: `O=C(NC1CC1)c1cn(-c2cccc(-c3ccc(C4CC4C(=O)O)c(F)c3)c2)c2ncccc2c1=O` (single isomer, unassigned; isomer 2) [12-(−)-isomer, 2-{3′-[3-[(Cyclopropylamino)carbonyl]-4-oxo-1,8-naphthyridin-1(4H)-yl]-3-fluoro-1,1′-biphenyl-4-yl}cyclopropanecarboxylic acid] was tested. Which IC50 did it give?
A: 0.4 nM

Q: How did the IC50 turn out when `O=C(NC1CC1)c1cn(-c2cccc(-c3cccc(C4CC4C(=O)O)c3)c2)c2ncccc2c1=O` (centres unmarked) [Example 2] was run?
A: 0.2 nM

Q: `CC(C)(CC(=O)O)c1ccc(-c2cccc(-n3cc(C(=O)NC4CC4)c(=O)c4cccnc43)c2)cc1` [Example 5, 3-{3′-[3-[(Cyclopropylamino)carbonyl]4-oxo-1,8-naphthyridin-1(4H)-yl]-1,1′-biphenyl-4-yl}-3-methylbutanoic acid] was tested. Which IC50 did it give?
A: 0.6 nM

Q: `O=C(NC1CC1)c1cn(-c2cccc(-c3ccc(C4CC4C(=O)O)c(Cl)c3)c2)c2ncccc2c1=O` (centres unmarked) [Example 17, 2-{3-Chloro-3′-[3-[(cyclopropylamino)carbonyl]-4-oxo-1,8-naphthyridin-1(4H)-yl]-1,1′-biphenyl-4-yl}cyclopropanecarboxylic acid] was tested. Which IC50 did it give?
A: 0.1 nM

Q: Which IC50 does the source give for `O=C(NCC1CC1)c1cn(-c2cccc(-c3ccc(C4CC4C(=O)O)cc3)c2)c2ncccc2c1=O` (centres unmarked) [Example 26, 2-{3′-[3-{[(Cyclopropylmethyl)amino]carbonyl}4-oxo-1,8-naphthyridin-1(4H)-yl]-1,1′-biphenyl-4-yl}cyclopropanecarboxylic acid] here?
A: 0.2 nM
